Measured values as given in ChEMBL document CHEMBL1143081, “Identification of 1S,2R-milnacipran analogs as potent norepinephrine and serotonin transporter inhibitors” (Bioorg Med Chem Lett, 2008).

What was measured:
[1] = target: Sodium-dependent dopamine transporter (Homo sapiens, UniProt Q01959)
[2] = target: Sodium-dependent serotonin transporter (Homo sapiens, UniProt P31645)
[3] = target: Sodium-dependent noradrenaline transporter (Homo sapiens, UniProt P23975)
[4] = Metabolic stability in human liver microsomes assessed as systemic clearance; type: ADME, Microsome
[5] = Partition coefficient, log P of the compound; type: physicochemical; settings: octanol/water
[6] = Apparent permeability across human Caco-2 cells; type: ADME, cell-based
[7] = Lipophilicity, Log D of the compound; type: physicochemical; settings: octanol/water
[8] = Elimination half life in human; type: ADME, organism-based; settings: in vivo
clinical = settings: human, in vivo, po
Description: Oral bioavailability in human

[9] = Renal clearance in human; type: ADME, organism-based, Kidney; settings: in vivo, read-out: CL_renal

Sequence of Sodium-dependent serotonin transporter (P31645 whole entry): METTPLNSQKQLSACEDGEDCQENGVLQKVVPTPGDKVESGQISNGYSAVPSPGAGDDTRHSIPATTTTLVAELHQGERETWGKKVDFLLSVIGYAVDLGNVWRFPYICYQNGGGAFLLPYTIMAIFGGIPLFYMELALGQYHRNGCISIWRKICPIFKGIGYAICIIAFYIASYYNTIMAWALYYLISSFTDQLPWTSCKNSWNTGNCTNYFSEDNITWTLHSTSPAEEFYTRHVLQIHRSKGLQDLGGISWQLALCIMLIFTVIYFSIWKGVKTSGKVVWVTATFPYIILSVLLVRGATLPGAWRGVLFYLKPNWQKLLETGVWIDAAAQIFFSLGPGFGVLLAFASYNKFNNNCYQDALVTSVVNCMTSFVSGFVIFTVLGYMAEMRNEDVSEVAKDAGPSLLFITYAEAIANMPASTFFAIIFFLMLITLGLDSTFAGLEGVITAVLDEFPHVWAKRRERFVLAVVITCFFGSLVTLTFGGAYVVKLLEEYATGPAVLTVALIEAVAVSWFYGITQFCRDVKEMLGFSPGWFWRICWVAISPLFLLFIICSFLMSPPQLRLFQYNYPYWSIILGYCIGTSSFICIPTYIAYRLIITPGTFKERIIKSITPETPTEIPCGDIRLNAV
Sequence of Sodium-dependent dopamine transporter (Q01959 whole entry): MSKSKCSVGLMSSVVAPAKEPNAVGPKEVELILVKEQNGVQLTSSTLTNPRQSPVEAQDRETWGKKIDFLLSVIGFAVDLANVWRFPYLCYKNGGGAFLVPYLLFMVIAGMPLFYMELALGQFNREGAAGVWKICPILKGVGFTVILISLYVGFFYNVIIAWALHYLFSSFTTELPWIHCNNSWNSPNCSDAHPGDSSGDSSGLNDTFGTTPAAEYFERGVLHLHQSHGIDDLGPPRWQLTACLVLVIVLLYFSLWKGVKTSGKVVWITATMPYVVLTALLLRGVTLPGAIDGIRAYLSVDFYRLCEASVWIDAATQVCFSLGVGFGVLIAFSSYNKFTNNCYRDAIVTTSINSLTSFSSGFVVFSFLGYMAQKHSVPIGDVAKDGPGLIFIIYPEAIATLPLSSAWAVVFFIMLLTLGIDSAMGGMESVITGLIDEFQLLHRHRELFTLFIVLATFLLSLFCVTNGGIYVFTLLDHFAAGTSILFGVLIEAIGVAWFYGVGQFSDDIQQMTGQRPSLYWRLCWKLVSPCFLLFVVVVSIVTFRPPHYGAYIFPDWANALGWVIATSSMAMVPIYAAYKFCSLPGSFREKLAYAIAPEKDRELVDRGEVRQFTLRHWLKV
Sequence of Sodium-dependent noradrenaline transporter (P23975 whole entry): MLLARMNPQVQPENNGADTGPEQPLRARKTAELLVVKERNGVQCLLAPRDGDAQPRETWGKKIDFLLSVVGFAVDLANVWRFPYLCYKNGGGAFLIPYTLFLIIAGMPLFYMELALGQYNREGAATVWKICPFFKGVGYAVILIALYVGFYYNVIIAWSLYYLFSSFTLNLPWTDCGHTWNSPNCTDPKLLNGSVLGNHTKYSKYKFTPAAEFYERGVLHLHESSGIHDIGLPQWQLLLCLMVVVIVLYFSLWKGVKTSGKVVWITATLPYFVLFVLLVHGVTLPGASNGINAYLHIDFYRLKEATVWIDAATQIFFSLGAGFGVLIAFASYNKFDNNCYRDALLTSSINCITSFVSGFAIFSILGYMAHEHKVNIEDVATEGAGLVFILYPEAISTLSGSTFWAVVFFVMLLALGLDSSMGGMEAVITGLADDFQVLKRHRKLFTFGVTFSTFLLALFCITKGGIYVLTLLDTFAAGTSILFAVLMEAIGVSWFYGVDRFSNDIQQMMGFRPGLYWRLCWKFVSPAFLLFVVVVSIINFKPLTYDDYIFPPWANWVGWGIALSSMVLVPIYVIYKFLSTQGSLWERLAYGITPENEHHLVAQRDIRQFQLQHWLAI
Description for physchem: Dissociation constant, pKa of the compound

IC50 [1] [µM]	IC50 [2] [µM]	IC50 [3] [µM]	Structure (SMILES)	further results
1.3	1.1	0.047	CCN(CC)C(=O)[C@@]1(c2ccc3sccc3c2)C[C@H]1CN	–
> 10	1.7	0.021	C=CCN(CCC)C(=O)[C@@]1(c2ccc3c(c2)CCO3)C[C@H]1CN	–
2.9	0.039	0.0032	C=CCN(CC(=C)F)C(=O)[C@@]1(c2ccc3c(c2)OCCO3)C[C@H]1CN	–
> 10	0.1	0.0081	C=C(F)CN(C)C(=O)[C@@]1(c2ccc3c(c2)OCCO3)C[C@H]1CN	–
> 10	0.054	0.004	C#CCN(CC(=C)F)C(=O)[C@@]1(c2ccc3c(c2)OCCO3)C[C@H]1CN	–
6.3	0.032	0.0035	C=CCN(CC=C)C(=O)[C@@]1(c2ccc3c(c2)OCCO3)C[C@H]1CN	CLhep predicted [4]: 8.1 mL/min/kg
> 10	0.13	0.014	C#CCN(CC=C)C(=O)[C@@]1(c2ccc3c(c2)CCO3)C[C@H]1CN	–
> 10	0.54	0.0071	CCN(CC1CC1)C(=O)[C@@]1(c2ccc3c(c2)OCCO3)C[C@H]1CN	–
> 10	0.21	0.04	C=CCN(CC#CC)C(=O)[C@@]1(c2ccc3c(c2)CCO3)C[C@H]1CN	–
> 10	0.48	0.012	CCN(CC)C(=O)[C@@]1(c2ccc3c(c2)OCO3)C[C@H]1CN	logP [5]: 1.7; CLhep predicted [4]: 7.9 mL/min/kg; Papp [6]: 4.7 ×10⁻⁶ cm/s; pKa (physchem): 9.6; logD [7]: 0.4
> 10	2.1	0.16	CCN(CC)C(=O)[C@@]1(c2ccc3c(c2)CCO3)C[C@H]1CN	–
3.6	0.077	0.02	NC[C@@H]1C[C@@]1(C(=O)C1NCc2ccccc21)c1ccc2c(c1)OCO2 (stereo partly drawn)	–
> 10	> 10	6.4	C=CCN(CC)C(=O)C1(c2ccccc2)C(CN)C1(C)C (racemic)	–
4.3	0.049	0.0076	C#CCN(CC#C)C(=O)[C@@]1(c2ccc3c(c2)OCO3)C[C@H]1CN	–
> 10	0.27	0.0045	C=CCN(CC=C)C(=O)[C@@]1(c2ccc3c(c2)CCO3)C[C@H]1CN	–
> 10	0.15	0.0071	C=CCN(CC)C(=O)[C@@]1(c2ccc3c(c2)OCO3)C[C@H]1CN	–
5.1	0.32	0.0058	NC[C@@H]1C[C@@]1(C(=O)N1CCOc2ccccc21)c1ccc2c(c1)OCO2	–
4.3	0.56	> 10	NCC1C(c2ccccc2)C1(C(=O)N1CCc2ccccc21)c1ccccc1 (racemic)	–
> 10	0.014	0.0094	NC[C@@H]1C[C@@]1(C(=O)N1CCc2sccc2C1)c1ccc2c(c1)OCO2	–
4.5	> 10	> 10	CCN(CC)C(=O)C1(c2ccccc2)C(CN)C1(C)C (racemic)	–
> 10	0.46	0.08	CC#CCN(CCC)C(=O)[C@@]1(c2ccc3c(c2)CCO3)C[C@H]1CN	–
> 10	0.16	0.0044	C#CCN(C(=O)[C@@]1(c2ccc3c(c2)OCCO3)C[C@H]1CN)C1CC1	–

IC50 [1] [µM]	IC50 [2] [µM]	IC50 [3] [µM]	Structure (SMILES)	further results
> 10	0.065	0.0029	C=CCN(CC)C(=O)[C@@]1(c2ccc3c(c2)OCCO3)C[C@H]1CN	CLhep predicted [4]: 8.8 mL/min/kg
> 10	0.28	0.047	CCN(CC)C(=O)[C@@]1(c2ccc3occc3c2)C[C@H]1CN	–
> 10	0.145	0.017	C#CCN(CC#C)C(=O)[C@@]1(c2ccc3c(c2)CCO3)C[C@H]1CN	–
> 10	0.025	0.0017	C#CCN(CC#C)C(=O)[C@@]1(c2ccc3c(c2)OCCO3)C[C@H]1CN	CLhep predicted [4]: 7.9 mL/min/kg; Papp [6]: 5.2 ×10⁻⁶ cm/s
> 10	0.058	0.007	C=CCN(CC=C)C(=O)[C@@]1(c2ccc3c(c2)OCO3)C[C@H]1CN	–
0.64	0.028	0.0042	NC[C@@H]1C[C@@]1(C(=O)N1CCc2ccccc21)c1ccc2c(c1)OCO2	–
–	–	–	CNCC[C@@H](Oc1ccccc1C)c1ccccc1 [ATOMOXETINE]	half-life [8]: 8 h; logP [5]: 3.5; CLhep predicted [4]: 14.3 mL/min/kg; bioavailability (clinical): 85%; logD [7]: 0.8
> 10	0.14	0.0063	CCN(CC)C(=O)[C@@]1(c2ccc3c(c2)OCCO3)C[C@H]1CN	CLhep predicted [4]: 4.4 mL/min/kg
> 10	0.112	0.0052	C=C(F)CN(CC)C(=O)[C@@]1(c2ccc3c(c2)OCCO3)C[C@H]1CN	–
> 10	0.48	0.16	CCN(CC)C(=O)[C@@]1(c2ccc3c(c2)CCC3)C[C@H]1CN	–
3.6	0.026	0.0065	NC[C@@H]1C[C@@]1(C(=O)N1CCc2ccccc2C1)c1ccc2c(c1)OCO2	–
> 10	3.4	> 10	C=CCN(CC)C(=O)C1(c2ccccc2)C(CN)C1c1ccccc1 (racemic)	–
> 10	0.125	0.0059	C#CCN(CC)C(=O)[C@@]1(c2ccc3c(c2)OCCO3)C[C@H]1CN	–
–	–	–	CCN(CC)C(=O)C1(c2ccccc2)CC1CN (racemic)	CL renal [9]: 350 mL/min; logD [7]: 0
> 10	6.9	> 10	CCN(CC)C(=O)C1(c2ccccc2)CC1(C)CN (racemic)	–
> 10	0.21	0.0039	C#CCN(CC1CC1)C(=O)[C@@]1(c2ccc3c(c2)OCCO3)C[C@H]1CN	–
> 10	0.43	0.018	C=CCN(CC)C(=O)[C@@]1(c2ccc3c(c2)CCO3)C[C@H]1CN	–
> 10	0.064	0.015	C=CCN(CC#CC)C(=O)[C@@]1(c2ccc3c(c2)OCO3)C[C@H]1CN	–
> 10	0.37	0.073	CCN(CC)C(=O)[C@@]1(c2cccc(F)c2)C[C@H]1CN	–
> 10	6.4	> 10	CCN(CC)C(=O)C1(c2ccccc2)C(CN)C1c1ccccc1 (racemic)	–
–	–	–	CCN(CC)C(=O)[C@@]1(c2ccccc2)C[C@H]1CN [LEVOMILNACIPRAN]	logP [5]: 1.6; CLhep predicted [4]: 5 mL/min/kg; logD [7]: -0.2

Structure (SMILES)	IC50 [1] [µM]	IC50 [2] [µM]	IC50 [3] [µM]	further results
CC1(C)C(CN)C1(C(=O)N1CCc2ccccc21)c1ccccc1 (racemic)	> 10	> 10	> 10	–
